Earlier results as cited in article PMC7465340, “Preparation and Evaluation of Eudragit L100-PEG Proliponiosomes for Enhanced Oral Delivery of Celecoxib” (Pharmaceutics, 2020).
Values after ≈ are worked out from the molar mass of the structure shown. Read-outs that look alike come from different tables or passages of the source.

Cc1ccc(-c2cc(C(F)(F)F)nn2-c2ccc(S(N)(=O)=O)cc2)cc1 [CXB, Celecoxib]
solubility in aqueous media (pH 1.2): 1.4 µg/mL (≈ 3.67 µM) | solubility in aqueous media (pH 6.8): 1.2 µg/mL (≈ 3.15 µM) | solubility of free CXB (pH 6.8): ≈ 1.23 ± 0.05 μg/mL
